Experimental data taken from EP1707568A2, “A pharmaceutical composition for use in the treatment of ovarian cancer in a human afflicted therewith” (SMITHKLINE BEECHAM CORPORATION, priority 1991, dated 1992).
Like-named read-outs stand apart in the source and are kept apart here.

Legend:
[1] = Hang-bag stability of topotecan diluted in saline or dextrose; assay type: physicochemical; conditions: read-out: recovery
Method: Topotecan diluted in saline (10 ug/ml or 500 ug/ml) or dextrose (6.7 ug/ml or 330 ug/ml) is stable in a hang-bag for 24 hours with at least 95% recovery.

[2] = Stability of reconstituted topotecan solution further diluted in D5W or NS in plastic bags at room temperature; assay type: physicochemical; conditions: for Percentage of Initial Topotecan Remaining in Solution: 0 hrs; for remaining at 6 h / remaining at 24 h / remaining at 48 h: read-out: Percentage of Initial Topotecan Remaining in Solution
Method: Topotecan is currently undergoing Phase I clinical investigation. The following pharmaceutical information is being supplied to the clinicians: • How supplied - As a vial containing 5 mg (of the base) with 100 mg mannitol. The pH is adjusted to 3.0 with HCl/NaOH. Lyophilized powder is light yellow in color. Intact vials should be stored under refrigeration (2-8 degrees Centigrade). • Solution Preparation -When the 5 mg vial is reconstituted with 2 ml of Sterile Water for Injection, USP, each ml will contain 2.5 mg of topotecan as the base and 50 mg of mannitol, USP. Topotecan must not be diluted or mixed with buffered solutions because of solubility and stability considerations. • Stability - Shelf life surveillance of the intact vials is ongoing. Because the single-use lyophilized dosage form contains no antibacterial preservatives, it is advised that the reconstituted solution be discarded eight hours after initial entry into the vial. Futher dilutions of the reconstituted solution to concentrations of 0.02 mg/ml and 0.1 mg/ml in 5% Dextrose Injection, USP, ("D5W") or 0.9% Sodium Chloride Injection, USP, ("NS") in plastic bags stored at room temperature yielded the following stability results:
Percentage of Initial Topotecan Remaining in Solution

[3] = system: ovarian cancer; assay: Clinical treatment of a platinum-refractory ovarian cancer patient, tumor size evaluated by CAT scan; assay type: in vivo; conditions: one human patient, intravenous 1.5 mg/m^2 per day for five consecutive days
Method: One human patient with ovarian cancer, who was refractory to two previous platinum-containing regimens (i.e., cisplatin-cyclophosphamide combination regimen and treatment with single agent carboplatin), received a course of therapy comprising intravenous administration of 1.5 mg of topotecan/m^2 of body surface area per day for five consecutive days. This course of therapy was repeated […] nine more times to date at twenty-one day intervals (from the date of initiation of therapy) for a total of ten treatments. Tumor size regression was evaluated by CAT (computerized axial tomography) scan. […] At least until the tenth treatment, this clinically significant response was sustained, i.e., a greater than fifty percent (50%) tumor size regression was obtained.

CC[C@@]1(O)C(=O)OCc2c1cc1n(c2=O)Cc2cc3c(CN(C)C)c(O)ccc3nc2-1 [Topotecan, (S)-9-dimethylaminomethyl-10-hydroxycamptothecin]
remaining at 24 h ([1]; dextrose, 6.7 ug/ml): ≥ 95% | remaining at 24 h ([1]; saline, 10 ug/ml): ≥ 95% | Percentage of Initial Topotecan Remaining in Solution ([2]; D5W, 0.02 mg/ml): 100.00% | Percentage of Initial Topotecan Remaining in Solution ([2]; D5W, 0.1 mg/ml): 100.00% | Percentage of Initial Topotecan Remaining in Solution ([2]; NS, 0.02 mg/ml): 100.00% | Percentage of Initial Topotecan Remaining in Solution ([2]; NS, 0.1 mg/ml): 100.00% | remaining at 6 h ([2]; d5w, 0.02 mg/ml): 99.3% | remaining at 6 h ([2]; d5w, 0.1 mg/ml): 99.7% | remaining at 24 h ([2]; d5w, 0.02 mg/ml): 102% | remaining at 24 h ([2]; d5w, 0.1 mg/ml): 98.2% | remaining at 48 h ([2]; d5w, 0.02 mg/ml): 102% | remaining at 48 h ([2]; d5w, 0.1 mg/ml): 97.9% | remaining at 6 h ([2]; ns, 0.02 mg/ml): 98.6% | remaining at 6 h ([2]; ns, 0.1 mg/ml): 97.7% | remaining at 24 h ([2]; ns, 0.02 mg/ml): 96% | remaining at 24 h ([2]; ns, 0.1 mg/ml): 98.3% | remaining at 48 h ([2]; ns, 0.02 mg/ml): 102% | remaining at 48 h ([2]; ns, 0.1 mg/ml): 98.3% | Tumor size regression ([3]; following four courses): An even greater response was observed | Tumor size regression ([3]; following two courses of therapy): Tumor size regression was observed | Tumor size regression ([3]; sustained at least until the tenth treatment): > 50%
